Data: US20230338564A1, “NEODEGRADER CONJUGATES” (Orum Therapeutics, Inc., priority 2020, published 2023)
Where two headings read alike, the source gives them in different places.

Legend:
[1] = tested on: EOL-1 cell line; test: In vitro antiproliferation assay, General Procedure 2 (CCK-8); assay type: cell-based, human
Text: (§1) Cell Culture: Cell lines were obtained from the American Type Culture Collection (ATCC, Manassas, VA, USA) or Deutsche Sammlung von Mikroorganismen und Zellkulturen (DSMZ, Braunschweig, Germany) and maintained according to the culturing conditions specified by ATCC or DSMZ. Cells were thawed out and maintained in culture for at least two passages before proceeding with experimental conditions.
(§2) Cytotoxicity assays: For adherent cell lines, the cells were dissociated with enzyme-free PBS-based cell dissociation buffer (Gibco, USA) and plated on tissue culture treated 96-well flat bottom polystyrene plates (Costar, Corning, USA) at appropriate cell densities depending on doubling time of the cells. 18 hours after plating, cells were treated with test articles at appropriate concentrations starting at 100 nM and diluted in 4-fold serial dilutions. For suspension cell lines, the cells were seeded on the same day of treatment and cells were treated as described above. Adherent cells were treated for 5 days and suspension cells were treated for 3 days. Cell proliferation was assessed using the Cell Counting Kit-8 (CCK-8, Dojindo Laboratories, Japan) and measurements were obtained using the Promega GloMax Discover plate reader (Promega, USA). Data were analyzed using GraphPad Prism software (GraphPad Software, San Diego, CA). All data points were obtained from technical triplicates and the experiments were validated using three biological replicates.

[2] = tested on: JHUEM3 cell line; test: as above; assay type: cell-based; settings: Endometrial
Text: as §1, §2

[3] = tested on: MOLM13 cell line; test: as above; assay type: cell-based
Text: as §1, §2

[4] = tested on: U251MG cell line; test: as above; assay type: cell-based; settings: Homo sapiens, U-251; Brain
Text: as §1, §2

[5] = tested on: RPMI7951 cell line; test: as above; assay type: cell-based; settings: Homo sapiens, RPMI-7951; Skin
Text: as §1, §2

[6] = tested on: NB-4 cell line; test: as above; assay type: cell-based; settings: Homo sapiens, Acute promyelocytic leukemia
Text: as §1, §2

[7] = tested on: THLE2 cell line; test: as above; assay type: cell-based; settings: THLE-2; Human liver normal
Text: as §1, §2

[8] = tested on: LOVO cell line; test: as above; assay type: cell-based; settings: Homo sapiens, Colon
Text: as §1, §2

[9] = tested on: OCI-AML2 cell line; test: as above; assay type: cell-based
Text: as §1, §2

[10] = tested on: OCI-AML4 cell line; test: as above; assay type: cell-based
Text: as §1, §2

[11] = tested on: KE39 cell line; test: as above; assay type: cell-based; settings: Gastric
Text: as §1, §2

[12] = tested on: THP-1 cell line; test: as above; assay type: cell-based; settings: Homo sapiens, AML
Text: as §1, §2

[13] = tested on: SU-DHL-8 cell line; test: as above; assay type: cell-based; settings: Homo sapiens, NHL
Text: as §1, §2

[14] = tested on: SKOV3 cell line; test: as above; assay type: cell-based; settings: Homo sapiens, SK-OV-3; Ovarian
Text: as §1, §2

[15] = tested on: CMK cell line; test: as above; assay type: cell-based; settings: Homo sapiens, Acute megakaryocytic leukemia
Text: as §1, §2

[16] = tested on: HL-60 cell line; test: as above; assay type: cell-based
Text: as §1, §2

[17] = tested on: BT-474 cell line; test: as above; assay type: cell-based; settings: Homo sapiens, Breast, read-out: IC50, BT474
Text: as §1, §2

[18] = tested on: ML-2 cell line; test: as above; assay type: cell-based
Text: as §1, §2

[19] = tested on: Daudi cell line; test: as above; assay type: cell-based; settings: Homo sapiens, NHL
Text: as §1, §2

[20] = tested on: Molp8 cell line; test: as above; assay type: cell-based; settings: Homo sapiens, MOLP-8; MM
Text: as §1, §2

[21] = tested on: AGS cell line; test: as above; assay type: cell-based; settings: Homo sapiens, Gastric
Text: as §1, §2

[22] = tested on: PL-21 cell line; test: as above; assay type: cell-based; settings: Acute myeloid leukemia
Text: as §1, §2

[23] = tested on: SKM-1 cell line; test: as above; assay type: cell-based
Text: as §1, §2

[24] = tested on: OCI-M1 cell line; test: as above; assay type: cell-based; settings: Acute myeloid leukemia
Text: as §1, §2

[25] = tested on: MV4-11 cell line; test: as above; assay type: cell-based
Text: as §1, §2

[26] = tested on: SK-BR-3 cell line; test: as above; assay type: cell-based; settings: Homo sapiens, Breast, read-out: IC50, SKBR3
Text: as §1, §2

[27] = tested on: SNU182 cell line; test: as above; assay type: cell-based; settings: Homo sapiens, SNU-182; Liver
Text: as §1, §2

[28] = tested on: OCI-M2 cell line; test: as above; assay type: cell-based; settings: Acute myelocytic leukemia
Text: as §1, §2

[29] = tested on: Ramos (non-Hodgkins lymphoma) cell line; test: In vitro antiproliferation assay, General Procedure 1 (WST-8); assay type: cell-based; settings: Ramos cells; rituximab neoDegrader conjugates versus comparators; FIG. 13
Protocol: (§3) The ability of neoDegrader conjugates to inhibit cell growth was measured using in vitro anti-proliferation assay. […] Conjugates were diluted in complete cell growth medium using 4-fold serial dilutions and 100 µL was added per well. […] Viability of remaining cells was determined by colorimetric WST-8 assay (Dojindo Molecular Technologies, Inc., Rockville, MD, US). WST-8 was added to 10% of the final volume and plates were incubated at 37° C. in a humidified 5% CO2 incubator for 2-4 hours. Plates were analyzed by measuring the absorbance at 450 nm (A450) in a multi-well plate reader. Background A450 absorbance of wells with media and WST-8 only was subtracted from all values. The percent viability was calculated by dividing each treated sample value by the average value of wells with untreated cells. The percent viability value was plotted against the test sample concentration in a semi-log plot for each treatment. IC50 values were calculated automatically.

[30] = tested on: BT-474 breast cancer cell line; test: as above; assay type: cell-based; settings: Homo sapiens, BT-474, read-out: IC50, BT-474, conjugates DAR 8, comparators DAR not given
Protocol: as §3

[31] = tested on: SK-BR-3 breast cancer cell line; test: as above; assay type: cell-based; settings: SK-BR-3 cells; neoDegrader conjugates (DAR 8) versus comparators; FIGS. 7 and 8
Protocol: as §3

[32] = tested on: HL-60 (acute myeloid leukemia) cell line; test: as above; assay type: cell-based; settings: AML; conjugates DAR 8, Mylotarg DAR not given
Protocol: as §3

[33] = tested on: OCI-AML-6 cell line; test: In vitro antiproliferation assay, General Procedure 2 (CCK-8); assay type: cell-based; settings: leukemia, acute myeloid leukemia
Text: as §1, §2

[34] = tested on: F-36P cell line; test: as above; assay type: cell-based; settings: leukemia, myelodysplastic syndrome
Text: as §1, §2

[35] = tested on: HNT-34 cell line; test: as above; assay type: cell-based; settings: leukemia, acute myeloid leukemia
Text: as §1, §2

[36] = tested on: OCI-AML-1 cell line; test: as above; assay type: cell-based; settings: leukemia, acute myeloid leukemia
Text: as §1, §2

[37] = tested on: OCI-AML-5 cell line; test: as above; assay type: cell-based; settings: leukemia, acute myeloid leukemia
Text: as §1, §2

[38] = tested on: PLB-985 cell line; test: as above; assay type: cell-based; settings: leukemia, acute myeloid leukemia (derivative of HL-60)
Text: as §1, §2

[39] = tested on: AML-193 cell line; test: as above; assay type: cell-based; settings: leukemia, acute monocytic, monocyte
Text: as §1, §2

[40] = tested on: Kopn-8 cell line; test: as above; assay type: cell-based; settings: leukemia, B cell precursor leukemia
Text: as §1, §2

[41] = tested on: Kasumi-6 cell line; test: as above; assay type: cell-based; settings: leukemia, acute myeloid, myeloblast
Text: as §1, §2

[42] = tested on: SKNO-1 cell line; test: as above; assay type: cell-based; settings: leukemia, acute myeloid leukemia
Text: as §1, §2

[43] = Homo sapiens, EOL1, Acute myeloid leukemia, read-out: IC50, EOL-1
[44] = Homo sapiens, MOLM-13, AML, read-out: IC50, MOLM13
[45] = Homo sapiens, OCI-AML2, Acute myeloid leukemia, read-out: IC50, OCI-AML2
[46] = Acute myeloid leukemia, read-out: IC50, OCI-AML4
[47] = Homo sapiens, HL-60, AML, read-out: IC50, HL-60
[48] = Homo sapiens, ML-2, Acute myelomonocytic leukemia, read-out: IC50, ML-2
[49] = Homo sapiens, SKM-1, Acute myeloid leukemia, read-out: IC50, SKM-1
[50] = Homo sapiens, MV4-11, Biphenotypic B myelomonocytic leukemia, read-out: IC50, MV4-11

Compound | IC50 [1, 43] | IC50 [2] | IC50 [3, 44] | IC50 [4] | IC50 [5] | IC50 [6] | IC50 [7] | IC50 [8] | IC50 [9, 45] | IC50 [10, 46] | IC50 [11] | IC50 [12] | IC50 [13] | IC50 [14] | IC50 [15] | IC50 [16, 47] | IC50 [17] | IC50 [18, 48] | IC50 [19] | IC50 [20] | other results
O=C1CCC(N2Cc3cc(CNC(=O)Nc4ccc(CCO)c(Cl)c4)ccc3C2=O)C(=O)N1 (stereo not drawn) [Compound P3, 1-(3-chloro-4-(2-hydroxyethyl)phenyl)-3-((2-(2,6-dioxopiperidin-3-yl)-1-oxoisoindolin-5-yl)methyl)urea] | 7.33e-10 M | 37.4 nM | 8.5e-09 M | 35.8 nM | 26 nM | 2.2 nM | 59.9 nM | 750 nM | 2.91e-08 M | 7e-09 M | 650 nM | 65 nM | 18.4 nM | 99.7 nM | 12.3 nM | 3.02e-09 M | 6.37 nM | 5.87e-10 M | 9.17 nM | 6.63 nM | IC50 [21]: 650 nM; IC50 [22]: 2.09 nM; IC50 [23, 49]: 1.89e-09 M; IC50 [24]: 104 nM; IC50 [25, 50]: 7.83e-10 M; IC50 [26]: 35 nM; IC50 [27]: 8.86 nM; IC50 [28]: 21.1 nM
CNc1ccccc1NC(=O)NCc1ccc2c(c1)CN(C1CCC(=O)NC1=O)C2=O (stereo not drawn) [Compound P4, 3-[[2-(2,6-dioxopiperidin-3-yl)-1-oxo-3H-isoindol-5-yl]methyl]-1-[2-(methylamino)phenyl]urea] | 1.88e-09 M | 58.6 nM | 9.5e-09 M | 46 nM | 30.2 nM | 2.63 nM | 6.27 nM | 119 nM | > 1e-06 M | 1.69e-08 M | 119 nM | 85 nM | 19.8 nM | 138 nM | 1000 nM | 5.45e-09 M | 2.9 nM | 1.27e-09 M | 14.3 nM | 7.42 nM | antiproliferative activity compared, in words [29]: less active; IC50 [30]: 2.9 nM; anti-proliferative activity compared, in words [31]: significantly less active; IC50 [21]: 650 nM; IC50 [22]: 2.28 nM; IC50 [23, 49]: 3.77e-09 M; IC50 [24]: 124 nM; IC50 [25, 50]: 1.91e-09 M; IC50 [26]: 64.6 nM; IC50 [27]: 13 nM; IC50 [28]: 20.9 nM
Mylotarg: approved agent, known antibody drug conjugate MYLOTARG |  |  |  |  |  |  |  |  |  |  |  |  |  |  |  |  |  |  |  |  | IC50 ([1]; Leukemia, Human eosinophilic leukaemia, read-out: IC50 (M), EoL-1): 6.87e-11 M; IC50 [32]: 0.0011 nM; IC50 ([3]; leukemia, acute,myeloid,leukemia suspension, read-out: IC50 (M), Molm-13): 2.7e-11 M; IC50 [33]: > 20 nM; IC50 [34]: > 20 nM; IC50 ([9]; leukemia, acute myeloid leukemia, read-out: IC50 (M), OCI-AML-2): 3.94e-11 M; IC50 ([10]; leukemia, acute myeloid leukemia, read-out: IC50 (M), OCI-AML-4): 2.37e-10 M; IC50 [35]: 3.77 nM; IC50 [36]: 0.224 nM; IC50 [37]: 0.0783 nM; IC50 [38]: 7.14 nM; IC50 ([16]; leukemia, acute promyelocytic, read-out: IC50 (M), HL-60): 3.26e-10 M; IC50 ([18]; leukemia, acute myelomonocytic leukemia, read-out: IC50 (M), ML-2): 5.02e-11 M; IC50 [39]: > 20 nM; IC50 [40]: 0.687 nM; IC50 [41]: > 20 nM; IC50 ([23]; leukemia, myelodysplastic syndrome, read-out: IC50 (M), SKM-1): 2.24e-10 M; IC50 ([25]; leukemia, biphenotypic B myelomonocytic, read-out: IC50 (M), MV-4-11): 5.32e-11 M; IC50 [42]: 13.4 nM
